Test results: patent US11697650B2, “Compounds having tetrahydroindolizine-1-carboxamide as BCL-2 inhibitors” (Eil Therapeutics, Inc., priority 2021, dated 2023)

Tests used:
[1] = molecular target: BCL-2 (Homo sapiens (Human), UniProt P10415); experiment: BCL-2 TR-FRET Assay (primary PPI inhibition); assay type: binding; settings: 60 min incubation; read-out: BCL2 (IC50 code, BCL-2 TR-FRET)
Outline: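 Mixture of 3 ng BCL-2, anti-His Tb donor, dye-labeled acceptor and BCL-2 peptide ligand, incubated 60 min with test compound. TR-FRET read at 340 nm excitation, 620/665 nm emission, 60 µs delay, 500 µs integration.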

[2] = molecular target: BCL-XL (Homo sapiens (Human), UniProt Q07817); experiment: BCL-XL TR-FRET Assay (primary PPI inhibition); assay type: binding; settings: 60 min incubation; read-out: BCLxL (IC50 code, BCL-XL TR-FRET)
Sequence of BCL-XL (Q07817 whole entry): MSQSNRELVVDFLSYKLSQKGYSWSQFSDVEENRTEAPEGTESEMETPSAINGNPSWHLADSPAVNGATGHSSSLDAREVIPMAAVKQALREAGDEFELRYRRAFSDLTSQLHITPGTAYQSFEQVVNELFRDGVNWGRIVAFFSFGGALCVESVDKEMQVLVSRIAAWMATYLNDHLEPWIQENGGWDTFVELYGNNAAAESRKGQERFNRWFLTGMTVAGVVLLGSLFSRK
Outline: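 TR-FRET displacement of a dye-labelled BCL-XL peptide ligand from His-tagged BCL-XL (10.5 ng) detected with a Tb-labelled anti-His donor. Incubation ran 60 min with test compound. Readout used 340 nm excitation and 620/665 nm emission with a 60 µs delay.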

[3] = molecular target: MCL-1 (Homo sapiens (Human), UniProt Q07820); experiment: MCL-1 TR-FRET Assay (primary PPI inhibition); assay type: binding; settings: 60 min incubation; read-out: MCL1 IC50
Sequence of MCL-1 (Q07820 whole entry): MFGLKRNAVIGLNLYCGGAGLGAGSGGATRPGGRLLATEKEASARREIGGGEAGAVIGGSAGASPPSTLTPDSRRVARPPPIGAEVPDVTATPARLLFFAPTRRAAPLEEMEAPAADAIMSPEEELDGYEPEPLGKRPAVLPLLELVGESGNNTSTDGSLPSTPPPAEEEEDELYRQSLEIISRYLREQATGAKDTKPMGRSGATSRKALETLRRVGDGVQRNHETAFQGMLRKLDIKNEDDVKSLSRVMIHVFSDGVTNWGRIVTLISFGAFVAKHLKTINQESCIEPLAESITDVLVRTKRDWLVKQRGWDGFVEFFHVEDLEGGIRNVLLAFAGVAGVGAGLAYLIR
Protocol: MCL-1 TR-FRET Assay (BPS Bioscience, #79506)
The following assay concentrations and times were used: 10 ng MCL-1, 5 μl of 1:200 anti-His Tb-labeled donor, 5 μl of 1:200 Dye-labeled acceptor, 5 μl of 1:10 MCL-1 Peptide Ligand, and 2 μl of test compound, with 60 min incubation time. The results of the assay were read using a Clariostar (BMG Labtech) plate reader with the following parameters: TR FRET, 340ex/620 and 665em; 60 μsec Delay; and 500 μsec integration.

[4] = test system: RS4-11 cells; experiment: Cell viability assay (CellTiter-Glo), RS4-11; assay type: cell-based; settings: Homo sapiens, 72 h, 3 days, read-out: RS4-11 (CC50 code)
Outline: (§1)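 HEK293 cells in DMEM at 2000/well, plated a day before dosing; RS4-11 and MOLT-4 in RPMI-1640 at 4000/well. Compounds diluted from 200× DMSO stocks through medium into wells, then incubated 3 days at 37 °C. Viability read by CellTiter-Glo luminescence.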

[5] = test system: MOLT-4 cells; experiment: Cell viability assay (CellTiter-Glo), MOLT-4; assay type: cell-based; settings: Homo sapiens, 72 h, 3 days, read-out: MOLT-4 (CC50 code)
Outline: as §1

[6] = Cell viability assay (CellTiter-Glo), HEK293; assay type: cell-based; settings: human, HEK293 cells, read-out: HEK293 (CC50 code)
Outline: as §1

[7] = test system: caspase-3 and -7 activities in RS4-11 cells; experiment: Caspase-3/7 activation (Caspase-Glo 3/7) in RS4-11 cells; assay type: cell-based; settings: Homo sapiens, 3.5 h incubation, read-out: Cas-3/7 (EC50 code)
Outline: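 RS4-11 cells exposed to varying compound concentrations for 3.5 h at 37 °C, 5% CO2, then 30 min at r.t. Caspase-Glo 3/7 reagent (luminogenic DEVD substrate) added, 30 min at r.t., luminescence read.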

Sequence of BCL-2 (P10415 whole entry): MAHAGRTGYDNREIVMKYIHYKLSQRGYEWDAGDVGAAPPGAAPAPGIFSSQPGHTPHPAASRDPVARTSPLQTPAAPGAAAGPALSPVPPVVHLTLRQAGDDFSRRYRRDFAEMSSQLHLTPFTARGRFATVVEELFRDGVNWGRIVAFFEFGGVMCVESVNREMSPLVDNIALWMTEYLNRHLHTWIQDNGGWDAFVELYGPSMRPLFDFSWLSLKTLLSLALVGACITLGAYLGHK

SMILES	IC50 [1] [µM]	IC50 [2] [µM]	IC50 [3] [µM]	CC50 [4] [µM]	CC50 [5] [µM]	CC50 at 3 days [6] [µM]	EC50 [7] [µM]
COCCNC(=O)c1ccc(CN(C(=O)c2cc(-c3cc4c(cc3C(=O)N3Cc5ccccc5C[C@H]3CN3CCOCC3)OCO4)n3c2CCCC3)c2ccc(O)cc2)cc1 [Compound 1, N-(4-hydroxyphenyl)-N-{4-[(2-methoxyethyl)carbamoyl]benzyl}-3-(6-{[(3S)-3-(morpholin-4-ylmethyl)-3,4-dihydroisoquinolin-2(1H)-yl]carbonyl}-1,3-benzodioxol-5-yl)-5,6,7,8-tetrahydroindolizine-1-carboxamide]	≤ 0.005	≤ 2	> 100	≤ 0.1	2 to 10	≤ 10	≤ 0.1
NC(=O)c1ccc(CN(C(=O)c2cc(-c3cc4c(cc3C(=O)N3Cc5ccccc5C[C@H]3CN3CCOCC3)OCO4)n3c2CCCC3)c2ccc(O)cc2)cc1 [Compound 13, N-(4-carbamoylbenzyl)-N-(4-hydroxyphenyl)-3-(6-{[(3S)-3-(morpholin-4-ylmethyl)-3,4-dihydroisoquinolin-2(1H)-yl]carbonyl}-1,3-benzodioxol-5-yl)-5,6,7,8-tetrahydroindolizine-1-carboxamide]	0.005 to 0.01	≤ 2	> 100	≤ 0.1	2 to 10	10 to 25	≤ 0.1
CN1CCN(C(=O)c2ccc(CN(C(=O)c3cc(-c4cc5c(cc4C(=O)N4Cc6ccccc6C[C@H]4CN4CCOCC4)OCO5)n4c3CCCC4)c3ccc(O)cc3)cc2)CC1 [Compound 12, N-(4-hydroxyphenyl)-N-{4-[(4-methylpiperazin-1-yl)carbonyl]benzyl}-3-(6-{[(3S)-3-(morpholin-4-ylmethyl)-3,4-dihydroisoquinolin-2(1H)-yl]carbonyl}-1,3-benzodioxol-5-yl)-5,6,7,8-tetrahydroindolizine-1-carboxamide]	0.005 to 0.01	≤ 2	> 100	≤ 0.1	> 10	10 to 25	≤ 0.1
NC(=O)c1cccc(CN(C(=O)c2cc(-c3cc4c(cc3C(=O)N3Cc5ccccc5C[C@H]3CN3CCOCC3)OCO4)n3c2CCCC3)c2ccc(O)cc2)c1 [Compound 7, N-(3-carbamoylbenzyl)-N-(4-hydroxyphenyl)-3-(6-{[(3S)-3-(morpholin-4-ylmethyl)-3,4-dihydroisoquinolin-2(1H)-yl]carbonyl}-1,3-benzodioxol-5-yl)-5,6,7,8-tetrahydroindolizine-1-carboxamide]	≤ 0.005	≤ 2	> 100	0.1 to 0.2	2 to 10	≤ 10	0.1 to 0.25
CN(C)CCNC(=O)c1ccc(CN(C(=O)c2cc(-c3cc4c(cc3C(=O)N3Cc5ccccc5C[C@H]3CN3CCOCC3)OCO4)n3c2CCCC3)c2ccc(O)cc2)cc1 [Compound 8, N-(4-{[2-(dimethylamino)ethyl]carbamoyl}benzyl)-N-(4-hydroxyphenyl)-3-(6-{[(3S)-3-(morpholin-4-ylmethyl)-3,4-dihydroisoquinolin-2(1H)-yl]carbonyl}-1,3-benzodioxol-5-yl)-5,6,7,8-tetrahydroindolizine-1-carboxamide]	≤ 0.005	≤ 2	> 100	≤ 0.1	> 10	> 25	≤ 0.1
